Tests used:
[1] = Hydrophilicity (water contact angle) of modified PET cloth; format: physicochemical; settings: for Contact angel: water contact angle of PET cloth modified with finishing liquid, UV 254 nm 1 minute, untreated PET 92 degrees
Procedure: (§1) The antibacterial hydrophilic compounds obtained in Examples 1-29 may be formulated into a finishing liquid having a mass concentration of 0.1-10% using water as a solvent, and the PET cloth may be impregnated and modified by the finishing liquid. After irradiation for 1 minute at ultraviolet light (wavelength: 254 nm), the antibacterial activity against Escherichia coli and Staphylococcus aureus may be tested by plate counting method, and their hydrophilicity (water contact angle of untreated PET may be 92 degrees) may be tested.
FIG. 3 illustrates a change in a contact angle of PET cloth treated or untreated by an antibacterial hydrophilic compound according to Example 13 of the present disclosure, where section (A) is a photograph of untreated PET cloth, and section (B) is a photograph of treated PET clot.

Staphylococcus aureus = test: Antibacterial activity of modified PET cloth by plate counting method; format: cell-based; parameters: Antibacterial activity, Washing one time: concentration or dose not given beside the values; settings: S. aureas
Procedure: as §1

Escherichia coli = test: as above; format: cell-based; parameters: Antibacterial activity, Washing one time: concentration or dose not given beside the values; settings: E. coli
Procedure: as §1

[2] = Hydrophilicity (core height) of modified PET cloth, FIG. 5; format: physicochemical; settings: modified PET cloth (B) vs unmodified PET (A)
From the text: FIG. 5 is a diagram illustrating hydrophilicity of PET cloth treated with an antibacterial hydrophilic compound according to Example 1 of the present disclosure.

SMILES | Contact angel [1] | Antibacterial activity, Washing 50 times (Staphylococcus aureus) | Antibacterial activity, Washing one time (Staphylococcus aureus) | Antibacterial activity, Washing 50 times (Escherichia coli) | Antibacterial activity, Washing one time (Escherichia coli) | core height vs unmodified PET [2] | water contact angle of the treated PET cloth ([1]; FIG. 3, untreated PET cloth 92 degrees)
CCOP(=O)([O-])OCC[N+](C)(C)Cc1ccc(C(=O)c2ccccc2)cc1 [Example 3] | 0 degrees | 90.2% | 99.99% | 87.8% | 99.99% | – | –
CCCCCCCC[N+](C)(C)CCOC(=O)Nc1ccc(C(=O)c2ccccc2)cc1.[Br-] [Example 11] | 0 degrees | 99.9% | 99.99% | 92.8% | 99.99% | – | –
C[N+](C)(CCC(=O)[O-])c1ccc(C(=O)Oc2ccc(C(=O)c3ccccc3)cc2)cc1 [Example 4] | 0 degrees | 80.9% | 99.99% | 86.9% | 99.99% | – | –
CC1(C)C(=O)N(CC(O)CNCc2ccc(C(=O)c3ccccc3)cc2)C(=O)N1Cl (centres unmarked) [Example 28] | 40 degrees | 99.9% | 99.99% | 95.1% | 99.99% | – | –
CCCCCCCCCC[N+](C)(C)Cc1ccc2c(c1)C(=O)c1ccccc1C2=O [Example 16] | 0 degrees | 98.5% | – | 91.7% | 99.99% | – | –
CCCCCCCC[N+](C)(C)Cc1cn(Cc2ccc(C(=O)c3ccccc3)cc2)nn1 [Example 19] | 0 degrees | 99.6% | 99.99% | 92.8% | 99.99% | – | –
CC1(C)C(=O)N(Cc2ccc(C(=O)c3ccccc3)cc2)C(=O)N1Cl [Example 27] | 50 degrees | 99.8% | – | 94.9% | 99.99% | – | –
C[N+](C)(CCS(=O)(=O)[O-])Cc1ccc(C(=O)c2ccccc2)cc1 [Example 6] | 0 degrees | 89.7% | – | 86.6% | 99.99% | – | –
C[N+](C)(CCCS(=O)(=O)[O-])c1ccc(C(=O)c2ccc([N+](C)(C)CCCS(=O)(=O)[O-])cc2)cc1 [Example 1] | 0 degrees | 92.9% | 99.99% | 88.5% | 99.99% | significantly greater | –
CCCCCCCCCCCC[N+](C)(C)Cc1ccc(C(=O)c2ccccc2)cc1 [Example 14] | 0 degrees | 96.9% | 99.99% | 91.7% | 99.99% | – | –
CCCCCCCCCC[N+](C)(C)Cc1ccc(C(=O)c2ccc(C[N+](C)(C)CCCCCCCCCC)cc2)cc1 [Example 15] | 0 degrees | 99.9% | – | 96.8% | 99.99% | – | –
CCCCCCCCCCCC[N+](C)(C)c1ccc(C(=O)Oc2ccc(C(=O)c3ccccc3)cc2)cc1 [Example 13] | 0 degrees | 96.9% | 99.99% | 91.7% | 99.99% | – | 0 °
CCCCCCCCCCCC[N+](C)(C)CCOC(=O)Nc1ccc(C)c(NC(=O)Nc2ccccc2C(=O)c2ccc(Cl)cc2)c1 [Example 18] | 0 degrees | 99.9% | 99.99% | 95.8% | 99.99% | – | –
C[N+](C)(CCCCS(=O)(=O)[O-])CCOc1ccc(C(=O)c2ccccc2)cc1 [Example 2] | 0 degrees | 89.9% | – | 86.2% | 99.99% | – | –
CC1(C)C(=O)N(COC(=O)Nc2ccc(C(=O)c3ccccc3)cc2)C(C)(C)N1Cl [Example 26] | 45 degrees | 99.9% | – | 97.9% | 99.99% | – | –

Reference: patent US11503828B2, “Antibacterial hydrophilic compound and use thereof” (SHENZHEN UNIVERSITY, priority 2017, dated 2022)
